The supplement of paper PMC10307832

compound: Cc1ccc(C(=O)Nc2ccc(CN3CCN(C)CC3)c(C(F)(F)F)c2)cc1C#Cc1cnc2cccnn12 [Ponatinib] + CC(=O)Nc1cccc(-n2c(=O)n(C3CC3)c(=O)c3c(Nc4ccc(I)cc4F)n(C)c(=O)c(C)c32)c1 [Trametinib] (partner 0.02 µM); assay: relative viability (nuclei count vs DMSO), 5 days (fraction); higher = more cells survive; details: first compound 0.002 µM
Method in brief: (§1)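 Lung cancer cell lines, seeded in 1536-well plates, were treated the following day by pin tool with a single drug or with five library-drug doses (not always all listed) in √10 steps on top of a fixed anchor-drug dose. Cells were fixed and nuclei stained in one step after 5 days, and nuclei were counted. Relative viability is the nuclei count for treated wells divided by that for vehicle wells, reported as medians of duplicate plates.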

Going from HARA to HCC-78, the relative viability rises from 0.633 to 0.684.

First: NCI-H441
Second: LCLC-97TM1
The relative viability of the first is higher: 0.389 for the first, 0.186 for the second.

First: NCI-H2009
Second: A-427
The relative viability of the first is lower: 0.284 for the first, 0.79 for the second.

Going from NCI-H460 to NCI-H727, the relative viability rises from 0.192 to 0.415.

Going from NCI-H1734 to NCI-H520, the relative viability falls from 0.63 to 0.597.

Compared with NCI-H2405, SW 1573 is higher in relative viability: 0.557 for the first, 0.6 for the second.

Going from 201T to NCI-H1915, the relative viability falls from 0.705 to 0.303.

Compared with HCC-827, LXF-289 is higher in relative viability: 0.526 for the first, 0.651 for the second.

Cell Line NCI-H23 has a relative viability of 0.376.

same assay, conditions: first compound 0.006325 µM

Compared with HARA, HCC-78 is higher in relative viability: 0.581 for the first, 0.673 for the second.

First: NCI-H441
Second: LCLC-97TM1
The relative viability of the first is higher: 0.435 for the first, 0.208 for the second.

Compared with NCI-H2009, A-427 is higher in relative viability: 0.253 for the first, 0.732 for the second.

Going from NCI-H460 to NCI-H727, the relative viability rises from 0.128 to 0.388.

First: NCI-H1734
Second: NCI-H520
The relative viability of the first is higher: 0.658 for the first, 0.623 for the second.

Compared with NCI-H2405, SW 1573 is lower in relative viability: 0.611 for the first, 0.595 for the second.

First: 201T
Second: NCI-H1915
The relative viability of the first is higher: 0.733 for the first, 0.321 for the second.

Going from HCC-827 to LXF-289, the relative viability rises from 0.558 to 0.649.

In the case of NCI-H23, the relative viability is reported as 0.415.

same assay, conditions: first compound 0.06325 µM

Going from HARA to HCC-78, the relative viability rises from 0.633 to 0.808.

Compared with NCI-H441, LCLC-97TM1 is lower in relative viability: 0.485 for the first, 0.168 for the second.

First: NCI-H2009
Second: A-427
The relative viability of the first is lower: 0.189 for the first, 0.719 for the second.

First: NCI-H460
Second: NCI-H727
The relative viability of the first is lower: 0.268 for the first, 0.398 for the second.

Compared with NCI-H1734, NCI-H520 is lower in relative viability: 0.527 for the first, 0.435 for the second.

Compared with NCI-H2405, SW 1573 is higher in relative viability: 0.435 for the first, 0.591 for the second.

Compared with 201T, NCI-H1915 is lower in relative viability: 0.762 for the first, 0.288 for the second.

Compared with HCC-827, LXF-289 is higher in relative viability: 0.558 for the first, 0.633 for the second.

NCI-H23 showed a relative viability of 0.364.

same assay, conditions: first compound 0.2 µM

Going from HARA to HCC-78, the relative viability rises from 0.443 to 0.638.

Going from NCI-H441 to LCLC-97TM1, the relative viability falls from 0.382 to 0.162.

Compared with NCI-H2009, A-427 is higher in relative viability: 0.165 for the first, 0.531 for the second.

Going from NCI-H460 to NCI-H727, the relative viability rises from 0.1 to 0.37.

Going from NCI-H1734 to NCI-H520, the relative viability falls from 0.505 to 0.285.

Compared with NCI-H2405, SW 1573 is higher in relative viability: 0.342 for the first, 0.577 for the second.

Going from 201T to NCI-H1915, the relative viability falls from 0.693 to 0.24.

First: HCC-827
Second: LXF-289
The relative viability of the first is lower: 0.459 for the first, 0.641 for the second.

NCI-H23 gave a relative viability of 0.348.

compound: Cc1ccc(C(=O)Nc2ccc(CN3CCN(C)CC3)c(C(F)(F)F)c2)cc1C#Cc1cnc2cccnn12 [Ponatinib] + CC(C)C[C@H](NC(=O)[C@H](Cc1ccccc1)NC(=O)c1cnccn1)B(O)O [Bortezomib] (partner 0.002 µM); assay: as above; details: first compound 0.002 µM
Method in brief: as §1

First: HARA
Second: HCC-78
The relative viability of the first is higher: 1.06 for the first, 0.476 for the second.

Going from NCI-H441 to LCLC-97TM1, the relative viability falls from 0.592 to 0.309.

Compared with NCI-H2009, A-427 is higher in relative viability: 0.86 for the first, 0.889 for the second.

Going from NCI-H460 to NCI-H727, the relative viability falls from 1.01 to 0.625.

First: NCI-H1734
Second: NCI-H520
The relative viability of the first is higher: 0.87 for the first, 0.623 for the second.

First: NCI-H2405
Second: SW 1573
The relative viability of the first is lower: 0.931 for the first, 0.971 for the second.

First: 201T
Second: NCI-H1915
The relative viability of the first is higher: 1.06 for the first, 0.849 for the second.

Going from HCC-827 to LXF-289, the relative viability falls from 1 to 0.946.

Cell Line NCI-H23 has a relative viability of 0.942.

same assay, conditions: first compound 0.006325 µM

Going from HARA to HCC-78, the relative viability falls from 1.1 to 0.48.

Compared with NCI-H441, LCLC-97TM1 is higher in relative viability: 0.363 for the first, 0.818 for the second.

First: NCI-H2009
Second: A-427
The relative viability of the first is lower: 0.969 for the first, 0.976 for the second.

Compared with NCI-H460, NCI-H727 is lower in relative viability: 0.98 for the first, 0.856 for the second.

Compared with NCI-H1734, NCI-H520 is lower in relative viability: 0.957 for the first, 0.83 for the second.

First: NCI-H2405
Second: SW 1573
The relative viability of the first is higher: 1.05 for the first, 1.02 for the second.

Compared with 201T, NCI-H1915 is lower in relative viability: 1.11 for the first, 0.975 for the second.

First: HCC-827
Second: LXF-289
The relative viability of the first is higher: 1.01 for the first, 0.996 for the second.

For NCI-H23, the relative viability was 1.04.

same assay, conditions: first compound 0.06325 µM

Going from HARA to HCC-78, the relative viability falls from 1.21 to 0.62.

Compared with NCI-H441, LCLC-97TM1 is higher in relative viability: 0.402 for the first, 0.74 for the second.

Compared with NCI-H2009, A-427 is lower in relative viability: 1.05 for the first, 1.02 for the second.

First: NCI-H460
Second: NCI-H727
The relative viability of the first is higher: 1.06 for the first, 0.851 for the second.

Going from NCI-H1734 to NCI-H520, the relative viability falls from 0.917 to 0.874.

Compared with NCI-H2405, SW 1573 is higher in relative viability: 0.944 for the first, 1.03 for the second.

Going from 201T to NCI-H1915, the relative viability falls from 1.13 to 0.923.

Going from HCC-827 to LXF-289, the relative viability falls from 1.05 to 1.

NCI-H23 showed a relative viability of 1.15.

same assay, conditions: first compound 0.2 µM

First: HARA
Second: HCC-78
The relative viability of the first is higher: 0.861 for the first, 0.421 for the second.

Compared with NCI-H441, LCLC-97TM1 is higher in relative viability: 0.452 for the first, 0.483 for the second.

Going from NCI-H2009 to A-427, the relative viability falls from 1 to 0.905.

First: NCI-H460
Second: NCI-H727
The relative viability of the first is higher: 0.974 for the first, 0.824 for the second.

Going from NCI-H1734 to NCI-H520, the relative viability falls from 0.905 to 0.439.

Compared with NCI-H2405, SW 1573 is higher in relative viability: 0.93 for the first, 0.997 for the second.

First: 201T
Second: NCI-H1915
The relative viability of the first is higher: 1.08 for the first, 0.871 for the second.

Compared with HCC-827, LXF-289 is lower in relative viability: 0.982 for the first, 0.98 for the second.

In the case of NCI-H23, the relative viability is reported as 0.853.

compound: Cc1ccc(C(=O)Nc2ccc(CN3CCN(C)CC3)c(C(F)(F)F)c2)cc1C#Cc1cnc2cccnn12 [Ponatinib] + Nc1ncn([C@H]2C[C@H](O)[C@@H](CO)O2)c(=O)n1 [Decitabine] (partner 2 µM); assay: as above; details: first compound 0.002 µM
Method in brief: as §1

First: HARA
Second: HCC-78
The relative viability of the first is lower: 0.486 for the first, 0.653 for the second.

First: NCI-H441
Second: LCLC-97TM1
The relative viability of the first is higher: 0.228 for the first, 0.205 for the second.

Compared with NCI-H2009, A-427 is higher in relative viability: 0.399 for the first, 0.547 for the second.

NCI-H460 showed a relative viability of 0.533.
